These results are taken from patent US9204653B2, “5-fluoro pyrimidine derivatives” (DOW AGROSCIENCES LLC, priority 2008, dated 2015).

Assay [1] relates to Mycosphaerella graminicola; Anamorph: Septoria tritici; Bayer Code SEPTTR. As to the kind of experiment: Leaf blotch of wheat, foliar fungicide treatment, one day protectant (1DP) or three day curative (3DC). In kind it is in vivo, Septoria tritici on wheat plants (variety Yuma). The settings on record: Zymoseptoria tritici.
In assay [2] the test system is Cercospora beticola; Bayer Code CERCBE. As to the kind of experiment: Leaf spot of sugar beets. Type of assay: in vivo, Cercospora beticola on sugar beets (variety HH-88). The settings on record: 24 h, % disease control rating, one day protectant; for pest or weed control at 25 ppm: read-out: CERCBE 1 DP 25 ppm; for pest or weed control at 75 ppm: read-out: CERCBE 1 DP 75 ppm.

Assay [3] deals with Venturia inaequalis; Bayer Code VENTIN. As to the kind of experiment: Apple scab. To be noted: 24 h, % disease control rating, one day protectant; for pest or weed control at 25 ppm: read-out: VENTIN 1 DP 25 ppm; for pest or weed control at 75 ppm: read-out: VENTIN 1 DP 75 ppm. In kind it is in vivo.
[4] abbreviates: 24 h, one day protectant (1DP), percent disease control rating, read-out: SETTTR 1DP 25 ppm.
Setting [5] is: 24 h, one day protectant (1DP), percent disease control rating, read-out: SEPTTR 1DP 100 ppm.
The mark [6] stands for this setting: 72 h, three day curative (3DC), percent disease control rating, read-out: SEPTTR 3DC 25 ppm.
[7] abbreviates: 72 h, three day curative (3DC), percent disease control rating, read-out: SEPTTR 3DC 100 ppm.
Setting [8] is: 24 h, one day protectant (1DP), rating of percent disease control, read-out: SETTTR 1DP 25 ppm.
[9] abbreviates: 24 h, one day protectant (1DP), rating of percent disease control, read-out: SEPTTR 1DP 100 ppm.
Setting [10] is: 72 h, three day curative (3DC), rating of percent disease control, read-out: SEPTTR 3DC 25 ppm.
Where [11] appears, read: 72 h, three day curative (3DC), rating of percent disease control, read-out: SEPTTR 3DC 100 ppm.

Where two headings read alike, the source gives them in different places.

Turning to `CC(Oc1ncc(F)c(NCOCc2ccccc2)n1)c1ccc(F)cc1` (centres unmarked) [Compound 121], the pest or weed control at 25 ppm is 51 to 75% in assay [1] (setting [4]), 51 to 75% in assay [1] (setting [6]), 0 to 25% in assay [2] and 76 to 100% in assay [3]. In addition, the pest or weed control at 100 ppm in assay [1] (setting [5]) and in assay [1] (setting [7]) was 76 to 100% throughout. The pest or weed control at 75 ppm in assay [2] lay in the range of 0 to 25%; in assay [3] it was 26 to 50%.
On to `CCCNC(=S)Nc1nc(OCc2ccn(C)n2)ncc1F` [Compound 122], for which the pest or weed control at 25 ppm in assay [1] (setting [4]) was 0 to 25%; in assay [1] (setting [6]), 26 to 50%; in assay [2], 26 to 50%; in assay [3] it was 76 to 100%. Besides, the pest or weed control at 100 ppm lay in the range of 51 to 75% in assay [1] (setting [5]) and 76 to 100% in assay [1] (setting [7]). Further, the values for the pest or weed control at 75 ppm in assay [2] and in assay [3] were 26 to 50% and 76 to 100%, respectively.
For the compound `O=[N+]([O-])c1ccccc1SNc1nc(OCc2cc(C(F)(F)F)cc(C(F)(F)F)c2)ncc1F` [Compound 125], the pest or weed control at 25 ppm was 26 to 50% in assay [1] (setting [4]), 0 to 25% in assay [1] (setting [6]), 26 to 50% in assay [2] and 26 to 50% in assay [3]. The pest or weed control at 100 ppm in assay [1] (setting [5]) is 26 to 50%; in assay [1] (setting [7]) it was 0 to 25%. The pest or weed control at 75 ppm in assay [2] lay within 26 to 50%; in assay [3], 76 to 100%.
In the case of `Fc1ccc(COc2ccc(F)c(NC(=S)Nc3ccccc3F)c2)cc1` [Compound 135], the pest or weed control at 25 ppm in assay [1] (setting [4]) fell in the range of 76 to 100%; in assay [1] (setting [6]), 51 to 75%; in assay [2], 26 to 50%; in assay [3] it was 51 to 75%. Further, the pest or weed control at 100 ppm in assay [1] (setting [5]) and in assay [1] (setting [7]) was 76 to 100% each time. Also, the pest or weed control at 75 ppm in assay [2] lay in the range of 26 to 50%; in assay [3] it was 51 to 75%.
Take `CCCCCCOc1ncc(F)c(N)n1` [Compound 137]: the pest or weed control at 25 ppm in assay [1] (setting [4]) fell in the range of 26 to 50%; in assay [1] (setting [6]) it was 26 to 50%; in assay [2], 0 to 25%; in assay [3], 0 to 25%. Also, the pest or weed control at 100 ppm in assay [1] (setting [5]) and in assay [1] (setting [7]) was 76 to 100% in each case. For the same compound, the pest or weed control at 75 ppm in assay [2] is 0 to 25%; in assay [3], 76 to 100%.
Take `Nc1nc(OCc2nc(Cl)ccc2Cl)ncc1F` [Compound 141]: the pest or weed control at 25 ppm in assay [1] (setting [4]) fell in the range of 0 to 25%; in assay [1] (setting [6]), 51 to 75%; in assay [2] it was 0 to 25%; in assay [3], 0 to 25%. Moreover, the values for the pest or weed control at 100 ppm in assay [1] (setting [5]) and in assay [1] (setting [7]) were 76 to 100% and 26 to 50%, respectively. Further, the pest or weed control at 75 ppm in assay [2] was 0 to 25%; in assay [3], 26 to 50%.
As for `CNc1nc(OCc2ccc(OC)c(C(F)(F)F)c2)ncc1F` [Compound 155], the pest or weed control at 25 ppm in assay [1] (setting [4]) is 51 to 75%; in assay [1] (setting [6]), 76 to 100%; in assay [2], 0 to 25%; in assay [3] it was 26 to 50%. The pest or weed control at 100 ppm in assay [1] (setting [5]) and in assay [1] (setting [7]) was 76 to 100% in each case. Besides, the pest or weed control at 75 ppm in assay [2] and in assay [3] was 0 to 25% in each case.
Turning to `O=C(Nc1nc(OCc2cccc(F)c2)ncc1F)c1ccccc1` [Compound 158], the pest or weed control at 25 ppm in assay [1] (setting [4]) was in the range of 76 to 100%; in assay [1] (setting [6]), 76 to 100%; in assay [2], 0 to 25%; in assay [3], 51 to 75%. Further, the pest or weed control at 100 ppm in assay [1] (setting [5]) and in assay [1] (setting [7]) was 76 to 100% in each case. In addition, the pest or weed control at 75 ppm in assay [2] was 0 to 25%; in assay [3], 51 to 75%.
As for `CCCNC(=O)Nc1nc(OCc2cccc(C#N)c2)ncc1F` [Compound 163], the pest or weed control at 25 ppm in assay [1] (setting [4]), in assay [1] (setting [6]), in assay [2] and in assay [3] was 0 to 25% each time. The pest or weed control at 100 ppm in assay [1] (setting [5]) and in assay [1] (setting [7]) was 0 to 25% each time. The pest or weed control at 75 ppm in assay [2] is 0 to 25%; in assay [3], 26 to 50%.
On to `CN(Cc1ccccc1F)c1nc(OCc2ccc(F)cc2)ncc1F` [Compound 164], for which the pest or weed control at 25 ppm in assay [1] (setting [4]) was 26 to 50%; in assay [1] (setting [6]), 0 to 25%; in assay [2] it was 0 to 25%; in assay [3], 26 to 50%. Also, the pest or weed control at 100 ppm in assay [1] (setting [5]) and in assay [1] (setting [7]) was 51 to 75% throughout. Further, the pest or weed control at 75 ppm in assay [2] is 0 to 25%; in assay [3], 51 to 75%.
Consider `Fc1ccccc1CNC(=S)Nc1nc(OCc2cccs2)ncc1F` [Compound 169], for which the pest or weed control at 25 ppm in assay [1] (setting [4]) lay within 51 to 75%; in assay [1] (setting [6]), 0 to 25%; in assay [2], 0 to 25%; in assay [3], 51 to 75%. In addition, the results for the pest or weed control at 100 ppm in assay [1] (setting [5]) and in assay [1] (setting [7]) were 76 to 100% and 0 to 25%, respectively. For the same compound, the figures for the pest or weed control at 75 ppm in assay [2] and in assay [3] were 0 to 25% and 26 to 50%, respectively.
In the case of `O=C(Nc1nc(OCc2cccc(F)c2)ncc1F)OCc1ccc([N+](=O)[O-])cc1` [Compound 180], the pest or weed control at 25 ppm in assay [1] (setting [4]) lay within 0 to 25%; in assay [1] (setting [6]), 0 to 25%; in assay [2], 0 to 25%; in assay [3], 26 to 50%. The pest or weed control at 100 ppm in assay [1] (setting [5]) was in the range of 51 to 75%; in assay [1] (setting [7]), 0 to 25%. For the same compound, the results for the pest or weed control at 75 ppm in assay [2] and in assay [3] were 26 to 50% and 0 to 25%, respectively.
As for `COc1ccc(Oc2ncc(F)c(/N=C/N(C)C)n2)cc1` [Compound 187], the pest or weed control at 25 ppm in assay [1] (setting [8]) was in the range of 0 to 25%; in assay [1] (setting [10]), 0 to 25%; in assay [2], 0 to 25%; in assay [3], 51 to 75%. In addition, the pest or weed control at 100 ppm in assay [1] (setting [9]) fell in the range of 0 to 25%; in assay [1] (setting [11]) it was 51 to 75%. The pest or weed control at 75 ppm in assay [2] and in assay [3] was 26 to 50% in each case.
For `COc1c(C)cnc(COc2ncc(F)c(N)n2)c1C` [Compound 189], the pest or weed control at 25 ppm in assay [1] (setting [8]) was 51 to 75%; in assay [1] (setting [10]) it was 51 to 75%; in assay [2], 26 to 50%; in assay [3] it was 51 to 75%. The pest or weed control at 100 ppm in assay [1] (setting [9]) and in assay [1] (setting [11]) was 76 to 100% each time. The pest or weed control at 75 ppm in assay [2] lay within 0 to 25%; in assay [3], 51 to 75%.
Regarding `CS(=O)(=O)c1ccc(COc2ncc(F)c(N)n2)cc1` [Compound 207], the pest or weed control at 25 ppm in assay [1] (setting [8]), in assay [1] (setting [10]), in assay [2] and in assay [3] was 0 to 25% throughout. Also, the figures for the pest or weed control at 100 ppm in assay [1] (setting [9]) and in assay [1] (setting [11]) were 26 to 50% and 0 to 25%, respectively. Besides, the pest or weed control at 75 ppm lay within 0 to 25% in assay [2] and 26 to 50% in assay [3].
Take `Cn1nc(C(F)(F)F)c(COc2ncc(F)c(N)n2)c1Cl` [Compound 211]: the pest or weed control at 25 ppm in assay [1] (setting [8]) was in the range of 76 to 100%; in assay [1] (setting [10]), 76 to 100%; in assay [2], 0 to 25%; in assay [3], 26 to 50%. Also, the pest or weed control at 100 ppm in assay [1] (setting [9]) and in assay [1] (setting [11]) was 76 to 100% each time. In addition, the pest or weed control at 75 ppm in assay [2] was in the range of 0 to 25%; in assay [3] it was 51 to 75%.
In the case of `CC(=O)Nc1nc(OCCNc2ccccc2)ncc1F` [Compound 214], the pest or weed control at 25 ppm fell in the range of 0 to 25% in assay [1] (setting [8]), 0 to 25% in assay [1] (setting [10]), 51 to 75% in assay [2] and 76 to 100% in assay [3]. Besides, the pest or weed control at 100 ppm in assay [1] (setting [9]) and in assay [1] (setting [11]) was 0 to 25% in each case. Besides, the pest or weed control at 75 ppm in assay [2] was in the range of 51 to 75%; in assay [3] it was 76 to 100%.
For the compound `O=C1OC(Nc2nc(OCc3ccc(F)cc3)ncc2F)c2ccccc21` (centres unmarked) [Compound 226], the pest or weed control at 25 ppm in assay [1] (setting [8]) was in the range of 76 to 100%; in assay [1] (setting [10]), 76 to 100%; in assay [2], 0 to 25%; in assay [3], 26 to 50%. In addition, the pest or weed control at 100 ppm in assay [1] (setting [9]) and in assay [1] (setting [11]) was 76 to 100% in each case. Moreover, the pest or weed control at 75 ppm in assay [2] lay in the range of 26 to 50%; in assay [3], 76 to 100%.
Take `CONc1nc(OCc2ccc(F)cc2)ncc1F` [Compound 233]: the pest or weed control at 25 ppm lay within 51 to 75% in assay [1] (setting [8]), 76 to 100% in assay [1] (setting [10]), 0 to 25% in assay [2] and 0 to 25% in assay [3]. Further, the pest or weed control at 100 ppm in assay [1] (setting [9]) and in assay [1] (setting [11]) was 76 to 100% each time. The pest or weed control at 75 ppm in assay [2] was in the range of 0 to 25%; in assay [3] it was 51 to 75%.
